Experimental data as given in US12564634B2, “Highly dispersible zinc phthalocyanine-silica nanotubes and preparation method therefor” (priority 2019, dated 2026).

Assay: Dispersion stability analysis with LUMiSizer (transmittance profile under centrifugation)
Type: physicochemical
Conditions: aqueous dispersion, 10 min ultrasonication, 5 s intervals, total 55 s, steeper slope = lower dispersion stability, Test Group I value matches the sample stored one day after dispersing
Description: In this experimental example, the dispersion stability of highly dispersible zinc phthalocyanine-silica nanotubes was tested. The dispersion stability analysis was performed with the use of LUMiSizer™.
In this regard, the dispersion stability refers to the stability of a dispersed material, and the longer the dispersion state is maintained after being dispersed, the higher the dispersion stability. As a measurement method, there is a method of directly observing the change in dispersion stability of the sample. In this regard, to shorten the observation time, there is a method of letting the sample to experience harsh conditions such as centrifugal force or heating so that the change in dispersion stability of the sample can be checked in a quick time (refer to “Procedures to accelerate the evaluation of long-term stability”, ISO/TR 13097). For example, the sample may undergo centrifugation so that relatively quick sedimentation of particles can occur compared to gravity sedimentation. In this case, layer separation occurs. […] A detector detects the IR rays having transmitted through the sample, and the detected rays are represented in real time as a transmittance profile. It is a method of performing comparative analysis of dispersion stability between samples by quantifying the generation rate, pattern, etc. of such a profile. […]

With `[Zn+2].c1ccc2c(c1)-c1nc-2nc2[n-]c(nc3nc([n-]c4nc(n1)-c1ccccc1-4)-c1ccccc1-3)c1ccccc21` [Control Group, zinc phthalocyanine] the “increase slope of the average value of the transmittance profile (rate in %/s)” value was 17.70 %/s.
